Experimental data: patent US20130040912A1, “PIPERAZINOTRIAZINES AS PI3K INHIBITORS FOR USE IN THE TREATMENT ANTIPROLIFERATIVE DISORDERS” (UNIVERSITY OF BASEL, priority 2010, published 2013)
Where two headings read alike, the source gives them in different places.

Experiments:
TSC2-/- MEFs cell line = test: in cell Western inhibition assay on TSC2-/- MEFs cell line; assay type: cell-based; details: for activity at 1 µM: in cell Western, the smaller the value, the stronger the inhibition, read-out: TSC2-/- MEFs cell inhibition pS6, % remaining activity; for selectivity to mTOR (in words): compared with ZSTK474 (4)
Method: (§1) The inhibitor efficacy and the cell permeability of the compounds of the invention are measured by in cell Western inhibition assay on melanoma cell line A2058 and TSC2−/− MEFs cell line. Furthermore, in vitro PI3Kalpha inhibition is measured (Table 1).

melanoma cell line A2058 = test: in cell Western inhibition assay on melanoma cell line A2058; assay type: cell-based; details: Homo sapiens, the smaller the value, the stronger the inhibition
Method: as §1

PI3Kalpha = PI3Kalpha (Homo sapiens, UniProt P42336); test: in vitro PI3Kalpha inhibition, Kinase Glo assay; assay type: biochemical; details: for remaining activity at 0.2 µM: Kinase Glo assay at 200 nM, % remaining activity, the smaller the value, the stronger the inhibition, read-out: In vitro PI3Kα, % remaining activity; for inhibitor activity against PI3K (in words): compared with ZSTK474 (4)
Method: as §1

PI3Kgamma isoform = PI3Kgamma isoform (Homo sapiens, UniProt P48736); test: fluorescence correlation spectroscopy binding to PI3Kgamma; details: binding leads to an increase in diffusion time
Method: Fluorophore containing compound 13 can be used as a reference inhibitor by fluorescence correlation spectroscopy experiments in which the binding constants of novel inhibitors are determined. […] When the enzyme is saturated with compound 13, new possible ligands can be tested by observing the release of compound 13. This leads to a decrease in diffusion time.

[1] = read-out: A2058 cell inhibition pPKB/PKB, % remaining activity
[2] = read-out: A2058 cell inhibition pS6, % remaining activity

PI3Kalpha, sequence (P42336 whole entry, species assumed): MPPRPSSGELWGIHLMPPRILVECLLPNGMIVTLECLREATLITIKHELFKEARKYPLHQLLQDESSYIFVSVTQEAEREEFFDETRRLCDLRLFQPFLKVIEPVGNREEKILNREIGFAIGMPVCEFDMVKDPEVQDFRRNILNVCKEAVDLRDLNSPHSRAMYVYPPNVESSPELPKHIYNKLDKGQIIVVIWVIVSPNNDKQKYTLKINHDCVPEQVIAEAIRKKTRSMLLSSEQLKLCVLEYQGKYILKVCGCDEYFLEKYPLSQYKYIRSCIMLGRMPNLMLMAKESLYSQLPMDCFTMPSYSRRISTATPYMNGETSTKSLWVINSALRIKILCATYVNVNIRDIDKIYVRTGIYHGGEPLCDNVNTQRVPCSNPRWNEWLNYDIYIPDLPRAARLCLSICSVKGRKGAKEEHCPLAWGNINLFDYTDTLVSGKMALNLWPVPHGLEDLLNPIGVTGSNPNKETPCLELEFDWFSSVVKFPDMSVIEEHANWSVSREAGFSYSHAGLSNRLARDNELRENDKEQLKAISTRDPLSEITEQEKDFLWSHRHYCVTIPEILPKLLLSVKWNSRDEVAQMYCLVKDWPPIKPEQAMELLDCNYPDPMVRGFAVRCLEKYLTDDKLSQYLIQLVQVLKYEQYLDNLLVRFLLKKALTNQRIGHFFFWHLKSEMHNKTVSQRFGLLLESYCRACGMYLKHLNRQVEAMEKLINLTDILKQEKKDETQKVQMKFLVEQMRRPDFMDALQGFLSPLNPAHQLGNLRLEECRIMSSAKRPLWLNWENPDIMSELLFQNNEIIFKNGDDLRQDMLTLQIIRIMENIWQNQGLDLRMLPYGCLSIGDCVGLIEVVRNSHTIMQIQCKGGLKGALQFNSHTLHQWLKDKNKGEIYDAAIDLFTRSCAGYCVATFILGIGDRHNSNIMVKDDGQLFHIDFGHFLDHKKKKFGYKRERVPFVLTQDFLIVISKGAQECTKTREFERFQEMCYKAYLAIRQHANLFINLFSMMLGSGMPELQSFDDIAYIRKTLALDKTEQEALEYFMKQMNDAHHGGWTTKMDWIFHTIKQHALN
PI3Kalpha, sequence (P27986 whole entry partner, species assumed): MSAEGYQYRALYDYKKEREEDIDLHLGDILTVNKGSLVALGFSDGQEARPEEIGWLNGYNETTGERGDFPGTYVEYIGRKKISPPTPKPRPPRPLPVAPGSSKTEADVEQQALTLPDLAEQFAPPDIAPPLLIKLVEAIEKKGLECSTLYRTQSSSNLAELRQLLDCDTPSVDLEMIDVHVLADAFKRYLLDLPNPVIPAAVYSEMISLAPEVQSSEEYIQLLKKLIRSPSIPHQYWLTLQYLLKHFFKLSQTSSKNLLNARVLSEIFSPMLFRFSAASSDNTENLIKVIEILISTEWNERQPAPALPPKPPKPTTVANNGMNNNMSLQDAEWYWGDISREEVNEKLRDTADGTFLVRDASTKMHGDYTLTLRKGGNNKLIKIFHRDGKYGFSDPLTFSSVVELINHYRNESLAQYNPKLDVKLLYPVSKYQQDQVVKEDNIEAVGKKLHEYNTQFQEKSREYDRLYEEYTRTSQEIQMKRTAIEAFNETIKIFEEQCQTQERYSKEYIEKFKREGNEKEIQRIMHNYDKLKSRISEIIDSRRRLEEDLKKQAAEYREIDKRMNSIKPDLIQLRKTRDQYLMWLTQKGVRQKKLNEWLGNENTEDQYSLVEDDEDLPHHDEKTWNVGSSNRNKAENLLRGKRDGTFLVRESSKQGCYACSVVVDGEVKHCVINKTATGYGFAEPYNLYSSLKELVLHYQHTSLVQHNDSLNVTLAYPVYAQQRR
PI3Kgamma isoform, sequence (P48736 whole entry, the tested form may be a part, canonical isoform): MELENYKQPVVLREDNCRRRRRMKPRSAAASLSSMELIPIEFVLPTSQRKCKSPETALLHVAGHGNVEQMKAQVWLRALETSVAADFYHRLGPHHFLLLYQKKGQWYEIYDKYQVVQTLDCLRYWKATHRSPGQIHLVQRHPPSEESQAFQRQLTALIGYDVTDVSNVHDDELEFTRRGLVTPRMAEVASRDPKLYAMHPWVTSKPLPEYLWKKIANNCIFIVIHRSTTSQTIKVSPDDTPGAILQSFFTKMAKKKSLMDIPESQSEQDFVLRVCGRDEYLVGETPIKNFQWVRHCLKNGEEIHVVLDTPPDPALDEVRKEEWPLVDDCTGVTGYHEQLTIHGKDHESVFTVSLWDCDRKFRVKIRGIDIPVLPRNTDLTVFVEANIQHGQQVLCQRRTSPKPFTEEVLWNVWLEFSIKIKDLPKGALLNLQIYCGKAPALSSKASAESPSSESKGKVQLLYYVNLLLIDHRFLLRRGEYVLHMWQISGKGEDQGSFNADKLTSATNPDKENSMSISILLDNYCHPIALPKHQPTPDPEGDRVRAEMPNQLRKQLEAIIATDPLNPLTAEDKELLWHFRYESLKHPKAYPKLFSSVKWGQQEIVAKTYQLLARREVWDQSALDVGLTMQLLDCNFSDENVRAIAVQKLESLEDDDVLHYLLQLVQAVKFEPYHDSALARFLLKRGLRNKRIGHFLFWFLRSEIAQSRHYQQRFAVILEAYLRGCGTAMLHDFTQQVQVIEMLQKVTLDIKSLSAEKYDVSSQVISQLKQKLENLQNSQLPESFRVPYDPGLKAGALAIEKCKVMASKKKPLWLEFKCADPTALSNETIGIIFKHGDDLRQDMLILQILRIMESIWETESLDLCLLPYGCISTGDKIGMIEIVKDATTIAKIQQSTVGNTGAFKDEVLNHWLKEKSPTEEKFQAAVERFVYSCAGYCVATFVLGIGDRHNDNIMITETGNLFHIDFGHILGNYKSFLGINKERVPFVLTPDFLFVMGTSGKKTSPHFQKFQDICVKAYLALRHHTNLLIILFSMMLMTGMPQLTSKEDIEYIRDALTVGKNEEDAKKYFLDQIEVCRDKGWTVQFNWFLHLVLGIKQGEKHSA

NCCN1CCN(c2nc(N3CCOCC3)nc(-n3c(C(F)F)nc4ccccc43)n2)CC1 [Compound 9, 2-(4-(4-(2-(Difluoromethyl)-1H-benzo[d]imidazol-1-yl)-6-morpholino-1,3,5-triazin-2-yl)piperazin-1-yl)ethanamine]
activity at 1 µM (TSC2-/- MEFs cell line): 89.9 ± 9.5%
activity at 1 µM (melanoma cell line A2058; [1]): 16.5 ± 0.24%
activity at 1 µM (melanoma cell line A2058; [2]): 30.9 ± 4.06%
remaining activity at 0.2 µM (PI3Kalpha): 50%

CN1CCN(c2nc(N3CCOCC3)nc(-n3cnc4ccccc43)n2)CC1 [Compound 17, reference compound]
activity at 1 µM (TSC2-/- MEFs cell line): 123 ± 5.78%
activity at 1 µM (melanoma cell line A2058; [1]): 122 ± 2.58%
activity at 1 µM (melanoma cell line A2058; [2]): 83 ± 3.31%
remaining activity at 0.2 µM (PI3Kalpha): 83%

O=C(CCCCCNC(=O)COc1ccc(/C=C/C2=[N+]3C(=Cc4ccc(-c5cccs5)n4[B-]3(F)F)C=C2)cc1)NCCN1CCN(c2nc(N3CCOCC3)nc(-n3c(C(F)F)nc4ccccc43)n2)CC1 [Compound 13, (E)-3-(4-(2-((6-((2-(4-(4-(2-(Difluoromethyl)-1H-benzo[d]imidazol-1-yl)-6-morpholino-1,3,5-triazin-2-yl)piperazin-1-yl)ethyl)amino)-6-oxohexyl)amino)-2-oxoethoxy)styryl)-5,5-difluoro-7-(thiophen-2-yl)-5H-dipyrrolo[1,2-c:2′,1′-f][1,3,2]diazaborinin-4-ium-5-uide]
binding to PI3Kgamma isoform (in words) (PI3Kgamma isoform): binds to the PI3Kgamma isoform
activity at 1 µM (TSC2-/- MEFs cell line): 95.5 ± 9.81%
activity at 1 µM (melanoma cell line A2058; [1]): 47.5 ± 5.48%
activity at 1 µM (melanoma cell line A2058; [2]): 57.3 ± 6.86%
activity (in words) (PI3Kalpha): active
remaining activity at 0.2 µM (PI3Kalpha): 13%

CCOCCN1CCN(c2nc(N3CCOCC3)nc(-n3c(C(F)F)nc4ccccc43)n2)CC1 [Compound 12, 4-(4-(2-(Difluoromethyl)-1H-benzo[d]imidazol-1-yl)-6-(4-(2-ethoxyethyl)piperazin-1-yl)-1,3,5-triazin-2-yl)morpholine]
activity at 1 µM (TSC2-/- MEFs cell line): 77.1 ± 4.62%
activity at 1 µM (melanoma cell line A2058; [1]): 15.9 ± 2.46%
activity at 1 µM (melanoma cell line A2058; [2]): 24.4 ± 4.34%
remaining activity at 0.2 µM (PI3Kalpha): 42%

CCCCCCN1CCN(c2nc(N3CCOCC3)nc(-n3c(C(F)F)nc4ccccc43)n2)CC1 [Compound 11, 4-(4-(2-(Difluoromethyl)-1H-benzo[d]imidazol-1-yl)-6-(4-hexylpiperazin-1-yl)-1,3,5-triazin-2-yl)morpholine]
activity at 1 µM (TSC2-/- MEFs cell line): 85.7 ± 5.71%
activity at 1 µM (melanoma cell line A2058; [1]): 85.2 ± 3.71%
activity at 1 µM (melanoma cell line A2058; [2]): 74 ± 10.3%
remaining activity at 0.2 µM (PI3Kalpha): 45%

CN1CCN(c2nc(N3CCOCC3)nc(-n3c(C(F)F)nc4ccccc43)n2)CC1 [Compound 5, 4-(4-(2-(Difluoromethyl)-1H-benzo[d]imidazol-1-yl)-6-(4-methylpiperazin-1-yl)-1,3,5-triazin-2-yl)morpholine]
activity at 1 µM (TSC2-/- MEFs cell line): 67.3 ± 1.26%
selectivity to mTOR (in words) (TSC2-/- MEFs cell line): diminishing of selectivity to mTOR
activity at 1 µM (melanoma cell line A2058; [1]): 4.13 ± 0.37%
activity at 1 µM (melanoma cell line A2058; [2]): 18.5 ± 1.7%
activity (in words) (PI3Kalpha): substantially more active than compound 17
remaining activity at 0.2 µM (PI3Kalpha): 33%
inhibitor activity against PI3K (in words) (PI3Kalpha): Increasing of inhibitor activity against PI3K

CCS(=O)(=O)N1CCN(c2nc(N3CCOCC3)nc(-n3c(C(F)F)nc4ccccc43)n2)CC1 [Compound 7, 4-(4-(2-(Difluoromethyl)-1H-benzo[d]imidazol-1-yl)-6-(4-(ethylsulfonyl)piperazin-1-yl)-1,3,5-triazin-2-yl)morpholine]
activity at 1 µM (TSC2-/- MEFs cell line): 104 ± 4.27%
selectivity to mTOR (in words) (TSC2-/- MEFs cell line): notable reduced
activity at 1 µM (melanoma cell line A2058; [1]): 30.7 ± 1.08%
activity at 1 µM (melanoma cell line A2058; [2]): 56.7 ± 10.6%
remaining activity at 0.2 µM (PI3Kalpha): 35%
inhibitor activity against PI3K (in words) (PI3Kalpha): slightly decreased

C=CC(=O)NCCN1CCN(c2nc(N3CCOCC3)nc(-n3c(C(F)F)nc4ccccc43)n2)CC1 [Compound 10, N-(2-(4-(4-(2-(Difluoromethyl)-1H-benzo[d]imidazol-1-yl)-6-morpholino-1,3,5-triazin-2-yl)piperazin-1-yl)ethyl)acrylamide]
activity at 1 µM (TSC2-/- MEFs cell line): 74.5 ± 5.9%
activity at 1 µM (melanoma cell line A2058; [1]): 3.99 ± 1.18%
activity at 1 µM (melanoma cell line A2058; [2]): 12.7 ± 1.69%
remaining activity at 0.2 µM (PI3Kalpha): 20%

C=CC(=O)N1CCN(c2nc(N3CCOCC3)nc(-n3c(C(F)F)nc4ccccc43)n2)CC1 [Compound 8, 1-(4-(4-(2-(Difluoromethyl)-1H-benzo[d]imidazol-1-yl)-6-morpholino-1,3,5-triazin-2-yl)piperazin-1-yl)prop-2-en-1-one]
activity at 1 µM (TSC2-/- MEFs cell line): 95 ± 7.44%
activity at 1 µM (melanoma cell line A2058; [1]): 13 ± 0.01%
activity at 1 µM (melanoma cell line A2058; [2]): 23 ± 4.22%
remaining activity at 0.2 µM (PI3Kalpha): 8%

FC(F)c1nc2ccccc2n1-c1nc(N2CCOCC2)nc(N2CCOCC2)n1 [Compound 4, 4,4′-(6-(2-(Difluoromethyl)-1H-benzo[d]imidazol-1-yl)-1,3,5-triazine-2,4-diyl)dimorpholine, reference compound]
activity at 1 µM (TSC2-/- MEFs cell line): 37.9 ± 4.21%
activity at 1 µM (melanoma cell line A2058; [1]): 3.63 ± 1.1%
activity at 1 µM (melanoma cell line A2058; [2]): 22.5 ± 0.13%
remaining activity at 0.2 µM (PI3Kalpha): 13%
